Reference: US12616739B2, “GLP-1 prodrugs and uses thereof” (Novo Nordisk A/S, priority 2020, dated 2026)

Test: Prodrug to drug conversion half-life in vitro, PBS pH 7.4, 37° C.
Assay type: physicochemical
Details: buffer
Protocol: General Methods for Measuring Conversion Half-Life
The assay was performed to investigate the conversion half-life of prodrug to drug of the prodrugs of the invention.
Peptide stock solutions were prepared by dissolving freeze-dried powder in PBS buffer to a target of 200 μM. PBS-buffer was Dulbecco's Phosphate Buffered Saline without CaCl2 and MgCl2, gibco 14190-094 adjusted to pH=7.4. The pH of the peptide stock solutions was adjusted to 7.4 with 0.02 M HCl or 0.02M NaOH. Samples were filled in Agilent HPLC vials with fixed insert. Vials were capped to prevent evaporation. The HPLC vials were incubated at 37° C. and samples were withdrawn at different time points over a period of 2 weeks, flash frozen at −80° C., and stored at −20° C. until analysis.
Sample analysis was carried out using UPLC coupled to UV detection at 215 nm and MS (UPLC-UV-MS). One μl of sample was injected on to a Waters Acquity UPLC with a flow-through-needle injection system and on to a Waters Acquity CSH C18 column (1*150 mm), with a particle size of 1.7 μm and held at 55° C. A flow-rate of 100 μl/min was delivered with a Binary solvent manager pump having 0.1% formic acid in water as solvent A and 0.1% formic acid in acetonitrile as solvent B. Gradient elution was carried out using 15-32% B from 0 to 4 min followed by 32 to 48% B from 4 to 54 min. […]

| Compound | half-life [h] |
| --- | --- |
| CC[C@H](C)[C@H](NC(=O)[C@H](Cc1ccccc1)NC(=O)[C@H](CCC(=O)O)NC(=O)[C@H](CCCCNC(=O)COCCOCCNC(=O)COCCOCCNC(=O)CC[C@H](NC(=O)CCCCCCCCCCCCCCCCC(=O)O)C(=O)O)NC(=O)[C@H](C)NC(=O)[C@H](C)NC(=O)[C@H](CCC(N)=O)NC(=O)CNC(=O)[C@H](CCC(=O)O)NC(=O)[C@H](CC(C)C)NC(=O)[C@H](Cc1ccc(O)cc1)NC(=O)[C@H](CO)NC(=O)[C@H](CO)NC(=O)[C@@H](NC(=O)[C@H](CC(=O)O)NC(=O)[C@H](CO)NC(=O)[C@@H](NC(=O)[C@H](Cc1ccccc1)NC(=O)[C@@H](NC(=O)CNC(=O)[C@H](CCC(=O)O)NC(=O)C(C)(C)NC(=O)[C@H](Cc1c[nH]cn1)NC(=O)CN(CCNC(=O)CC[C@H](NC(=O)CCCCCCCCCOc1ccc(C(=O)O)cc1)C(=O)O)C(=O)CN)[C@@H](C)O)[C@@H](C)O)C(C)C)C(=O)N[C@@H](C)C(=O)N[C@@H](Cc1c[nH]c2ccccc12)C(=O)N[C@@H](CC(C)C)C(=O)N[C@H](C(=O)N[C@@H](CCCNC(=N)N)C(=O)NCC(=O)N[C@@H](CCCNC(=N)N)C(=O)NCC(=O)O)C(C)C [Chem. 18, Gly-N^α-2-[[(4S)-4-carboxy-4-[10-(4-carboxyphenoxy)decanoylamino]butanoyl]amino]ethyl-Gly-semaglutide] | 115 |
| CC[C@H](C)[C@H](NC(=O)[C@H](Cc1ccccc1)NC(=O)[C@H](CCC(=O)O)NC(=O)[C@H](CCCCNC(=O)COCCOCCNC(=O)COCCOCCNC(=O)CC[C@H](NC(=O)CCCCCCCCCCCCCCCCC(=O)O)C(=O)O)NC(=O)[C@H](C)NC(=O)[C@H](C)NC(=O)[C@H](CCC(N)=O)NC(=O)CNC(=O)[C@H](CCC(=O)O)NC(=O)[C@H](CC(C)C)NC(=O)[C@H](Cc1ccc(O)cc1)NC(=O)[C@H](CO)NC(=O)[C@H](CO)NC(=O)[C@@H](NC(=O)[C@H](CC(=O)O)NC(=O)[C@H](CO)NC(=O)[C@@H](NC(=O)[C@H](Cc1ccccc1)NC(=O)[C@@H](NC(=O)CNC(=O)[C@H](CCC(=O)O)NC(=O)C(C)(C)NC(=O)[C@H](Cc1c[nH]cn1)NC(=O)CN(CCNC(=O)CC[C@H](NC(=O)CCCCCCCCCCOc1ccc(C(=O)O)cc1)C(=O)O)C(=O)CN)[C@@H](C)O)[C@@H](C)O)C(C)C)C(=O)N[C@@H](C)C(=O)N[C@@H](Cc1c[nH]c2ccccc12)C(=O)N[C@@H](CC(C)C)C(=O)N[C@H](C(=O)N[C@@H](CCCNC(=N)N)C(=O)NCC(=O)N[C@@H](CCCNC(=N)N)C(=O)NCC(=O)O)C(C)C [Chem. 26, Gly-N^α-2-[[(4S)-4-carboxy-4-[11-(4-carboxyphenoxy)undecanoylamino]butanoyl]amino]ethyl-Gly-semaglutide] | 118 |
